Data from US20180228828A1, “FIXED-DOSE COMBINATIONS OF ANTIVIRAL COMPOUNDS” (priority 2015, published 2018).

How the values were obtained:
[1] = human bioavailability comparison study, Tablet Formulation 9 vs co-administered single entity products; assay type: in vivo; settings: for AUC(0-inf) / Cmax / AUC(0-t) / concentration at 24 h: human plasma, fasted; for concentration at 24 h: read-out: C24 GM
Experimental: (§1) The blend is lubricated with magnesium stearate prior to roller compaction. Following roller compaction, the granules are further lubricated with magnesium stearate before compression on a rotary press. Tablet properties of apparent density and solid fraction are determined by gravimetric measurement of the drug product and geometric estimation of size with corresponding component powder measure of true density using helium pycnometry. The core tablets are then film coated and waxed to complete manufacture.
(§2) The reference in the study was co-administration of single entity products to achieve the equivalent total dose. In this cross-over design study all subjects were in the fasted state. Tablet Formulations 9b, and 10b were administered as Treatment C in the respective studies. Tablet Formulations 9a, and 10a were administered as Treatment B in the respective studies. The co-administration of the reference products were identified as Treatment A. After administration, blood samples were taken periodically, and the plasma concentration of the analytes, both primary compounds and metabolites, determined to generate the pharmacokinetic profiles and related specific metrics. These metrics included Cmax, AUC, and C24 (where quantifiable). Summary results from the human PK trials for Tablet Formulation 9 and Tablet Formulation 10 products are provided in Table 10 to Table 13 and Table 14 to 17, respectively. The resulting metrics were then compared in relation to the reference single entity products to assess similarity.

[2] = log D; assay type: physicochemical; settings: pH=7
[3] = human bioavailability comparison study, Tablet Formulation 10 vs co-administered single entity products; assay type: in vivo; settings: for AUC(0-inf) / Cmax / AUC(0-t) / concentration at 24 h: human plasma, fasted; for concentration at 24 h: read-out: C24 GM
Experimental: as §1, §2

[4] = Treatment B (Tablet Formulation 9a) / Treatment A (single entities)
[5] = Treatment C (Tablet Formulation 9b) / Treatment A (single entities)
[6] = human, plasma, oral, Treatment A: co-administered single entity products, equivalent total dose
[7] = human, plasma, oral, Treatment A: co-administered single entity products, equivalent total dose, read-out: AUC0-24 GM
[8] = human, plasma, oral, Treatment A: co-administered single entity products, equivalent total dose, read-out: AUC0-last GM
[9] = human, plasma, oral, Treatment B: two units Tablet Formulation 9a (450 mg Compound I, 100 mg Compound II, 50 mg Compound III), read-out: AUC0-last GM
[10] = human, plasma, oral, Treatment B: two units Tablet Formulation 9a
[11] = human, plasma, oral, Treatment B: two units Tablet Formulation 9a, read-out: AUC0-24 GM
[12] = human, plasma, oral, Treatment C: two units Tablet Formulation 9b (450 mg Compound I, 100 mg Compound II, 50 mg Compound III), read-out: AUC0-last GM
[13] = human, plasma, oral, Treatment C: two units Tablet Formulation 9b
[14] = human, plasma, oral, Treatment C: two units Tablet Formulation 9b, read-out: AUC0-24 GM
[15] = Treatment B (Tablet Formulation 10a) / Treatment A (single entities)
[16] = Treatment C (Tablet Formulation 10b) / Treatment A (single entities)
[17] = human, plasma, oral, Treatment B: one unit Tablet Formulation 10a (300 mg Compound I, 100 mg Compound II, 50 mg Compound III), read-out: AUC0-last GM
[18] = human, plasma, oral, Treatment B: one unit Tablet Formulation 10a
[19] = human, plasma, oral, Treatment B: one unit Tablet Formulation 10a, read-out: AUC0-24 GM
[20] = human, plasma, oral, Treatment C: one unit Tablet Formulation 10b (300 mg Compound I, 100 mg Compound II, 50 mg Compound III), read-out: AUC0-last GM
[21] = human, plasma, oral, Treatment C: one unit Tablet Formulation 10b
[22] = human, plasma, oral, Treatment C: one unit Tablet Formulation 10b, read-out: AUC0-24 GM
[23] = human, in vivo, Treatment A: co-administered single entity products, equivalent total dose
[24] = human, in vivo, Treatment A: co-administered single entity products, equivalent total dose, read-out: AUC0-24 GM
[25] = human, in vivo, Treatment A: co-administered single entity products, equivalent total dose, read-out: AUC0-last GM
[26] = human, in vivo, Treatment B: two units Tablet Formulation 9a
[27] = human, in vivo, Treatment C: two units Tablet Formulation 9b
[28] = human, in vivo, Treatment B: one unit Tablet Formulation 10a
[29] = human, in vivo, Treatment C: one unit Tablet Formulation 10b

SMILES: C=C[C@@H]1C[C@]1(NC(=O)[C@@H]1C[C@@H]2CN1C(=O)[C@H](C(C)(C)C)NC(=O)O[C@@H]1C[C@H]1CCCCCc1nc3ccc(OC)cc3nc1O2)C(=O)NS(=O)(=O)C1CC1 [Compound III, (1aR,5S,8S,10R,22aR)-N-[(1R,2S)-1-[(cyclopropylsulfonamido)carbonyl]-2-ethenylcyclopropyl]-14-methoxy-5-(2-methylpropan-2-yl)-3,6-dioxo-1,1a,3,4,5,6,9,10,18,19,20,21,22,22a-tetradecahydro-8H-7,10-methanocyclopropa[18,19][1,10,3,6]dioxadiazacyclononadecino[11,12-b]quinoxaline-8-carboxamide hydrate]
- AUC0-24 B/A GM ratio [1, 4]: 0.72
- AUC0-last B/A GM ratio [1, 4]: 0.77
- AUC0-∞ B/A GM ratio [1, 4]: 0.76
- C24 B/A GM ratio [1, 4]: 0.85
- Cmax B/A GM ratio [1, 4]: 0.64
- AUC0-24 C/A GM ratio [1, 5]: 1.00
- AUC0-last C/A GM ratio [1, 5]: 0.97
- AUC0-∞ C/A GM ratio [1, 5]: 0.88
- C24 C/A GM ratio [1, 5]: 1.04
- Cmax C/A GM ratio [1, 5]: 0.89
- AUC(0-inf) [1, 6]: 0.7 µM·h
- Cmax [1, 6]: 38.5 nM
- AUC(0-t) [1, 7]: 0.316 µM·h
- AUC(0-t) [1, 8]: 0.538 µM·h
- concentration at 24 h [1, 6]: 6.38 nM
- AUC(0-t) [1, 9]: 0.415 µM·h
- AUC(0-inf) [1, 10]: 0.53 µM·h
- Cmax [1, 10]: 24.8 nM
- AUC(0-t) [1, 11]: 0.229 µM·h
- concentration at 24 h [1, 10]: 5.41 nM
- AUC(0-t) [1, 12]: 0.522 µM·h
- AUC(0-inf) [1, 13]: 0.617 µM·h
- Cmax [1, 13]: 34.1 nM
- AUC(0-t) [1, 14]: 0.317 µM·h
- concentration at 24 h [1, 13]: 6.63 nM
- logD [2]: -3
- AUC0-24 B/A GM ratio [3, 15]: 0.71
- AUC0-last B/A GM ratio [3, 15]: 0.72
- AUC0-∞ B/A GM ratio [3, 15]: 0.69
- C24 B/A GM ratio [3, 15]: 0.80
- Cmax B/A GM ratio [3, 15]: 0.70
- AUC0-24 C/A GM ratio [3, 16]: 0.86
- AUC0-last C/A GM ratio [3, 16]: 0.91
- AUC0-∞ C/A GM ratio [3, 16]: 0.95
- C24 C/A GM ratio [3, 16]: 0.85
- Cmax C/A GM ratio [3, 16]: 0.91
- AUC(0-inf) [3, 6]: 0.5 µM·h
- Cmax [3, 6]: 27.5 nM
- AUC(0-t) [3, 7]: 0.24 µM·h
- AUC(0-t) [3, 8]: 0.36 µM·h
- concentration at 24 h [3, 6]: 4.85 nM
- AUC(0-t) [3, 17]: 0.26 µM·h
- AUC(0-inf) [3, 18]: 0.34 µM·h
- Cmax [3, 18]: 19.3 nM
- AUC(0-t) [3, 19]: 0.17 µM·h
- concentration at 24 h [3, 18]: 3.89 nM
- AUC(0-t) [3, 20]: 0.33 µM·h
- AUC(0-inf) [3, 21]: 0.47 µM·h
- Cmax [3, 21]: 24.9 nM
- AUC(0-t) [3, 22]: 0.2 µM·h
- concentration at 24 h [3, 21]: 4.11 nM

SMILES: COC(=O)N[C@H](C(=O)N1CCC[C@H]1c1nc(-c2ccc3c(c2)O[C@@H](c2ccccc2)n2c-3cc3cc(-c4c[nH]c([C@@H]5CCCN5C(=O)[C@@H](NC(=O)OC)C(C)C)n4)ccc32)c[nH]1)C(C)C [Compound II, dimethyl N,N′-([(6S)-6-phenylindolo[1,2-c][1,3]benzoxazine-3,10-diyl]bis{1H-imidazole-5,2-diyl-(2S)-pyrrolidine-2,1-diyl[(2S)-3-methyl-1-oxobutane-1,2-diyl]})dicarbamate]
- Cmax ([1]; Treatment C: two units Tablet Formulation 9b): 115 nM
- AUC(0-inf) [1, 6]: 2.04 µM·h
- Cmax [1, 6]: 113 nM
- AUC(0-t) [1, 7]: 1.21 µM·h
- AUC(0-t) [1, 8]: 2.01 µM·h
- concentration at 24 h [1, 6]: 32.3 nM
- AUC(0-t) [1, 9]: 1.59 µM·h
- AUC(0-inf) [1, 10]: 1.61 µM·h
- AUC(0-t) [1, 11]: 0.938 µM·h
- concentration at 24 h [1, 10]: 25.2 nM
- AUC(0-t) [1, 12]: 2.35 µM·h
- AUC(0-inf) [1, 13]: 2.38 µM·h
- AUC(0-t) [1, 14]: 1.41 µM·h
- concentration at 24 h [1, 13]: 37.4 nM
- Cmax ([3]; Treatment C: one unit Tablet Formulation 10b): 102 nM
- AUC(0-inf) [3, 6]: 1.84 µM·h
- Cmax [3, 6]: 101 nM
- AUC(0-t) [3, 7]: 1.12 µM·h
- AUC(0-t) [3, 8]: 1.81 µM·h
- concentration at 24 h [3, 6]: 28.5 nM
- AUC(0-t) [3, 17]: 1.55 µM·h
- AUC(0-inf) [3, 18]: 1.58 µM·h
- Cmax [3, 18]: 81.8 nM
- AUC(0-t) [3, 19]: 0.95 µM·h
- concentration at 24 h [3, 18]: 25.1 nM
- AUC(0-t) [3, 20]: 1.83 µM·h
- AUC(0-inf) [3, 21]: 1.85 µM·h
- AUC(0-t) [3, 22]: 1.14 µM·h
- concentration at 24 h [3, 21]: 29.2 nM

SMILES: CC(C)OC(=O)[C@@H](C)NP(=O)(OC[C@H]1O[C@@H](n2ccc(=O)[nH]c2=O)[C@](C)(Cl)[C@@H]1O)Oc1ccccc1 (stereo partly drawn) [Compound I, (2R)-isopropyl 2-(((((2R,3R,4R,5R)-4-chloro-5-(2,4-dioxo-3,4-dihydropyrimidin-1(2H)-yl)-3-hydroxy-4-methyltetrahydrofuran-2-yl)methoxy)(phenoxy)phosphoryl)amino)propanoate]
- AUC0-24 B/A GM ratio [1, 4]: 1.23
- AUC0-last B/A GM ratio [1, 4]: 1.24
- AUC0-∞ B/A GM ratio [1, 4]: 1.23
- Cmax B/A GM ratio [1, 4]: 1.44
- AUC0-24 C/A GM ratio [1, 5]: 1.37
- AUC0-last C/A GM ratio [1, 5]: 1.38
- AUC0-∞ C/A GM ratio [1, 5]: 1.36
- Cmax C/A GM ratio [1, 5]: 1.69
- AUC(0-inf) [1, 23]: 2.6 µM·h
- Cmax [1, 23]: 738 nM
- AUC(0-t) [1, 24]: 2.56 µM·h
- AUC(0-t) [1, 25]: 2.52 µM·h
- AUC(0-t) ([1]; human, in vivo, Treatment B: two units Tablet Formulation 9a (450 mg Compound I, 100 mg Compound II, 50 mg Compound III), read-out: AUC0-last GM): 3.11 µM·h
- AUC(0-inf) [1, 26]: 3.2 µM·h
- Cmax [1, 26]: 1060 nM
- AUC(0-t) ([1]; human, in vivo, Treatment B: two units Tablet Formulation 9a, read-out: AUC0-24 GM): 3.15 µM·h
- AUC(0-t) ([1]; human, in vivo, Treatment C: two units Tablet Formulation 9b (450 mg Compound I, 100 mg Compound II, 50 mg Compound III), read-out: AUC0-last GM): 3.48 µM·h
- AUC(0-inf) [1, 27]: 3.54 µM·h
- Cmax [1, 27]: 1250 nM
- AUC(0-t) ([1]; human, in vivo, Treatment C: two units Tablet Formulation 9b, read-out: AUC0-24 GM): 3.52 µM·h
- AUC0-24 B/A GM ratio [3, 15]: 0.96
- AUC0-last B/A GM ratio [3, 15]: 0.95
- AUC0-∞ B/A GM ratio [3, 15]: 0.98
- Cmax B/A GM ratio [3, 15]: 0.98
- AUC0-24 C/A GM ratio [3, 16]: 1.01
- AUC0-last C/A GM ratio [3, 16]: 1.00
- AUC0-∞ C/A GM ratio [3, 16]: 1.01
- Cmax C/A GM ratio [3, 16]: 1.18
- AUC(0-inf) [3, 23]: 1.69 µM·h
- Cmax [3, 23]: 525 nM
- AUC(0-t) [3, 24]: 1.65 µM·h
- AUC(0-t) [3, 25]: 1.63 µM·h
- AUC(0-t) ([3]; human, in vivo, Treatment B: one unit Tablet Formulation 10a (300 mg Compound I, 100 mg Compound II, 50 mg Compound III), read-out: AUC0-last GM): 1.55 µM·h
- AUC(0-inf) [3, 28]: 1.65 µM·h
- Cmax [3, 28]: 517 nM
- AUC(0-t) ([3]; human, in vivo, Treatment B: one unit Tablet Formulation 10a, read-out: AUC0-24 GM): 1.58 µM·h
- AUC(0-t) ([3]; human, in vivo, Treatment C: one unit Tablet Formulation 10b (300 mg Compound I, 100 mg Compound II, 50 mg Compound III), read-out: AUC0-last GM): 1.63 µM·h
- AUC(0-inf) [3, 29]: 1.7 µM·h
- Cmax [3, 29]: 618 nM
- AUC(0-t) ([3]; human, in vivo, Treatment C: one unit Tablet Formulation 10b, read-out: AUC0-24 GM): 1.67 µM·h
